Laboratory results taken from US5519001A, “CETP inhibitor polypeptide antibodies against the synthetic polypeptide and prophylactic and therapeutic anti-atherosclerosis treatments” (Southwest Foundation for Biomedical Research, priority 1995, dated 1996).
Ends that are not written are not given here.

Assays:
CETP = experiment: Cholesteryl ester transfer assay (3H CE-HDL to VLDL+LDL, baboon LPDS as CETP source); assay type: biochemical; conditions: for effect on transfer of CE from HDL to VLDL+LDL: electroeluted from gels, increasing concentrations, lipoproteins from low HDL1 baboons; for inhibitory activity of CETP: in vitro, result in words
Procedure: The CE transfer activity of a sample was assayed by a modification of a procedure described previously (Kushwaha et al, (1986), supra). Briefly, ^3 H CE-labeled HDL3 containing 50-100 μg of CE from low HDL1 baboons was incubated with VLDL+LDL containing 100-300 μg CE in the presence of LPDS. The acceptor lipoproteins and the LPDS were obtained from low HDL1 baboon plasma (chow diet). In some cases, the HDL3 was obtained from high HDL1 baboons maintained on the HCHF diet. The incubations were carried out at 4° C. (control) and 37° C. for 4-6 hrs, and terminated by placing the samples on ice. The assay mixture was then ultracentrifuged to separate VLDL+LDL having a d>1.040 g/ml, and the radioactivity in the lipoproteins was counted as described previously (Kushwaha et al, (1986), supra). Any difference observed in the radioactivity transferred from HDL to VLDL+LDL at 4° C. and 37° C. was attributed to CETP activity in the LPDS. Time course experiments gave a linear response up to 7 hrs. Similarly, the CETP activity was linear with increasing LPDS, up to 140 μl LPDS, which was derived from an equivalent volume of plasma. The polypeptide of the invention, and synthetic fragments thereof were added to the reaction mixture to determine their CETP inhibitory activities, along with an appropriate synthetic control peptide. The percent difference between the control experiment and the assay with inhibitor peptide was expressed as the inhibitor activity. A CE transfer assay as described in Example 4 above was conducted using HDL1 baboon plasma, ^3 H HDL, and the VLDL+LDL carriers, in the presence of CETP enzyme to mediate the exchange. The reactions were conducted at 37° C. and at 4° C. (control) in duplicate.

Human CETP = molecular target: T1, Human CETP (Homo sapiens, UniProt P11597); experiment: Inhibition of human CETP by synthetic CETP inhibitor peptide (human LPDS); assay type: biochemical; conditions: 100 μg peptide, HDL 10 μg, VLDL+LDL 50 μg, CETP 200 μl, 37 °C
T1 construct: To isolate human CETP, blood (5-10 ml) from human subjects was obtained in tubes containing EDTA; from tissue; host or cells: human plasma of individual donors, supernatant after heparin/MnCl2 and dextran sulfate precipitation of lipoproteins
T1 sequence (P11597 18-493): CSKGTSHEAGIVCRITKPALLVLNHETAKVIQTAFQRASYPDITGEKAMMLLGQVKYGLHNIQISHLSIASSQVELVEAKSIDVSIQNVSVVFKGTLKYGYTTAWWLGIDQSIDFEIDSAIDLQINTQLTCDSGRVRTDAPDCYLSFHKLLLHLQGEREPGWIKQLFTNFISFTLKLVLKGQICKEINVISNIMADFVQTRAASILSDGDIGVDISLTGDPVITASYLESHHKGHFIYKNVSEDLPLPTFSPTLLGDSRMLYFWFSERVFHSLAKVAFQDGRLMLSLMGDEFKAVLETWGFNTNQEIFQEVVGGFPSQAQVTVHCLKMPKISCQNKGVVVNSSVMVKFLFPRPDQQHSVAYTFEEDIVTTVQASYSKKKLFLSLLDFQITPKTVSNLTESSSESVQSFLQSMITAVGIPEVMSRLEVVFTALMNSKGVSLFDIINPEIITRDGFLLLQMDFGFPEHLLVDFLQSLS

[1] = molecular target: baboon plasma cholesteryl ester transfer protein (CETP), supplied as lipoprotein-deficient serum (LPDS, d>1.21 g/ml) from low HDL1 baboon plasma (baboon (papio sp.))

“amino acids 28 to 36: C-terminal fragment of SEQ. ID. NO:1, amino acids 28 to 36 (9 amino acids) (KQSEFPAKT)” was tested, and the “inhibitory activity of CETP at 50 μg” value (CETP; 50 μg peptide) was “limited inhibitory activity” and the “activity inhibitory of CETP at 200 μg” value (CETP; 200 μg peptide, compared with the 36 amino acid peptide) was “approximately the same as that of the 36 amino acid peptide”.

In the case of “4 kD polypeptide: endogenous CETP inhibitor polypeptide of molecular weight 4,000 electroeluted from lipoproteins of high HDL1 baboons (DVSSALDKLKEFGNTLEDKAWEVINRIKQSEFPAKT)”, the “effect on transfer of CE from HDL to VLDL+LDL” value (CETP) is reported as “significantly inhibited CETP activity”.

In the case of “amino acids 1 to 10: N-terminal fragment of SEQ. ID. NO:1, amino acids 1 to 10 (DVSSALDKLK)”, the “inhibitory activity of CETP” value (CETP) is reported as “active as inhibitors of CETP”.

With “amino acids 15 to 30: intermediate fragment of SEQ. ID. NO:1, amino acids 15 to 30 (TLEDKAWEVINRIKQS)” the “inhibitory activity of CETP” value (CETP) was “active as inhibitors of CETP”.

“amino acids 16 to 36: C-terminal fragment of SEQ. ID. NO:1, amino acids 16 to 36 (21 amino acids) (LEDKAWEVINRIKQSEFPAKT)” was tested, and the “inhibitory activity of CETP at 50 μg” value (CETP; 50 μg peptide) was “limited inhibitory activity”.

“APDVSSALDKLKEFGNTLEDKAWEVINRIKQSEFPAKT [SEQ. ID. NO:2]” was tested, and the “Inhibition (%)” value (Human CETP; human CETP source AB (S.N. 6)) was 60%, the “Inhibition (%)” value (Human CETP; human CETP source EJ (S.N. 3)) was 85% and the “Inhibition (%)” value (Human CETP; human CETP source EW (S.N. 11)) was 71%. The “Inhibition (%)” value (Human CETP; human CETP source GL (S.N. 7)) was 85%, the “Inhibition (%)” value (Human CETP; human CETP source KC (S.N. 8)) was 83% and the “Inhibition (%)” value (Human CETP; human CETP source KR (S.N. 5)) was 82%. The “Inhibition (%)” value (Human CETP; human CETP source ML (S.N. 12)) was 77%, the “Inhibition (%)” value (Human CETP; human CETP source RK (S.N. 2)) was 72% and the “Inhibition (%)” value (Human CETP; human CETP source SH (S.N. 1)) was 60%. For the same molecule, the “Inhibition (%)” value (Human CETP; human CETP source TH (S.N. 9)) was 86% and the “Inhibition (%)” value (Human CETP; human CETP source UM (S.N. 10)) was 90%.

In the case of “amino acids 1 to 15: N-terminal fragment of SEQ. ID. NO:1, amino acids 1 to 15 (DVSSALDKLKEFGNT)”, the “inhibitory activity of CETP” value (CETP) is reported as “active as inhibitors of CETP”.

In the case of “amino acids 1 to 20: N-terminal fragment of SEQ. ID. NO:1, amino acids 1 to 20 (DVSSALDKLKEFGNTLEDKA)”, the “inhibitory activity of CETP” value (CETP) is reported as “active as inhibitors of CETP”.

“SEQ. ID. NO:1: synthetic 36 amino acid peptide, sequence of the 4 kD baboon CETP inhibitor, common with N-terminal fragment of apo C-I (DVSSALDKLKEFGNTLEDKAWEVINRIKQSEFPAKT)” was tested, and the “inhibition of CE transfer from HDL to VLDL and LDL” value (CETP; 50 μg peptide, lipoproteins of low HDL1 baboons) was “significantly (p<0.01) inhibited” and the “inhibitory activity of CETP” value (CETP) was “inhibitory of CETP”.

With Albumin [reference compound] the “effect on transfer of CE from HDL to VLDL+LDL” value (CETP) was “no effect”.

In the case of APDVSSALDKLKEFGNTLEDKAWEVINRIKQSEFPAKT [synthetic CETP inhibitor peptide, baboon apo C-I terminal peptide with 38 amino acids (SEQ ID NO 2)], the Inhibition (%) of CETP-mediated cholesteryl ester transfer [1] is reported as 52%.

For TPDVSSALDKLKEFGNTLEDKARELISRIKQSELSAKM [synthetic CETP inhibitor peptide, human apo C-I terminal peptide with 38 amino acids (SEQ ID NO 3)], the Inhibition (%) of CETP-mediated cholesteryl ester transfer [1] was 60%.
